Experimental data published in article PMC10412865 (Current Research in Toxicology, 2023).
Structures can show the parent of a compound that is named as a salt. Where two headings read alike, the source gives them in different places.

Legend:
[1] = system: CYP1A2 activity in HepaRG cells; assay: CYP1A2 enzyme activity in differentiated HepaRG monolayers; type: cell-based, human; conditions: HepaRG, 48 h
[2] = system: CYP3A4 activity in HepaRG cells; conditions: 48 h
[3] = biological target: T1, human recombinant CYP1A2 (Homo sapiens, UniProt P05177); assay: Human recombinant CYP1A2 Supersome inhibition assay; type: biochemical
T1 sequence (P05177 1-516): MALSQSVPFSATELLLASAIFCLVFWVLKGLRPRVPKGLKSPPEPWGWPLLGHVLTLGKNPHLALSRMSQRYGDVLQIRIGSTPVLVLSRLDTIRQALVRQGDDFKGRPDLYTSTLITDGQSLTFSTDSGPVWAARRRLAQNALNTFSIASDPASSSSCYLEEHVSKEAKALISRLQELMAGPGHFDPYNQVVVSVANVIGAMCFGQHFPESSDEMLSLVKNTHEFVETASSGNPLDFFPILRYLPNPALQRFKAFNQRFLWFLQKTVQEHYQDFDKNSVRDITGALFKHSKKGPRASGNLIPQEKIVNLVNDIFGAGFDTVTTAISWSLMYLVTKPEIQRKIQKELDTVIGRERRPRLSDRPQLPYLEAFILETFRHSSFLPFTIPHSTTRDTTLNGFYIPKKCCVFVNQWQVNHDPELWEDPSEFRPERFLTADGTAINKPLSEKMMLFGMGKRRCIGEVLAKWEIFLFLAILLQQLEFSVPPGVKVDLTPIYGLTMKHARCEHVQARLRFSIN

[4] = biological target: T2, human recombinant CYP2B6 (Homo sapiens, UniProt P20813); assay: Human recombinant CYP2B6 Supersome inhibition assay; type: biochemical
T2 sequence (P20813 1-491): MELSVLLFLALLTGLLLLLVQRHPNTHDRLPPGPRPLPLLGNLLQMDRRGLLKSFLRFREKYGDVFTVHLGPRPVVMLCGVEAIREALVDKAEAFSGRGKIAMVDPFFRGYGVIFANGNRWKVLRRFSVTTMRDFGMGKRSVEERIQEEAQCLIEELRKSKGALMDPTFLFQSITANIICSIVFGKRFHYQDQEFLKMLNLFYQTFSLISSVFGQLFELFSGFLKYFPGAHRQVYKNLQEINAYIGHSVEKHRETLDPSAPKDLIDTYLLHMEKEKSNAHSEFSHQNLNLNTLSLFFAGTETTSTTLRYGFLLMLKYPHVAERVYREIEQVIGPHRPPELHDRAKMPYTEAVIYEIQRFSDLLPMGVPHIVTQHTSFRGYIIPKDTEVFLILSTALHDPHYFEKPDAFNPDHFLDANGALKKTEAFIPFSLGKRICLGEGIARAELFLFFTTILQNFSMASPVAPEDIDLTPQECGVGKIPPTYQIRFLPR

[5] = biological target: human recombinant CYP2C19 (Homo sapiens, UniProt P33261); assay: Human recombinant CYP2C19 Supersome inhibition assay; type: biochemical
[6] = biological target: human recombinant CYP2E1 (Homo sapiens, UniProt P05181); assay: Human recombinant CYP2E1 Supersome inhibition assay; type: biochemical
[7] = biological target: human recombinant CYP3A4 (Homo sapiens, UniProt P08684); assay: Human recombinant CYP3A4 Supersome inhibition assay; type: biochemical
[8] = humans, estimated average; ref Olsen et al. 2007; cited from earlier work
[9] = system: CYP1A2; assay: CYP1A2 enzyme activity in differentiated HepaRG monolayers; type: cell-based, human; conditions: human, differentiated HepaRG cell monolayers, probe luciferin-1A2 (6 µM)
[10] = 1 nM PFAS in binary mixture with 10 µM BaP
[11] = 1 µM PFAS in binary mixture with 10 µM BaP
[12] = 1 nM PFAS in binary mixture with 10 µM rifampicin
[13] = 1 µM PFAS in binary mixture with 10 µM rifampicin

Sequence of human recombinant CYP2E1 (P05181 whole entry): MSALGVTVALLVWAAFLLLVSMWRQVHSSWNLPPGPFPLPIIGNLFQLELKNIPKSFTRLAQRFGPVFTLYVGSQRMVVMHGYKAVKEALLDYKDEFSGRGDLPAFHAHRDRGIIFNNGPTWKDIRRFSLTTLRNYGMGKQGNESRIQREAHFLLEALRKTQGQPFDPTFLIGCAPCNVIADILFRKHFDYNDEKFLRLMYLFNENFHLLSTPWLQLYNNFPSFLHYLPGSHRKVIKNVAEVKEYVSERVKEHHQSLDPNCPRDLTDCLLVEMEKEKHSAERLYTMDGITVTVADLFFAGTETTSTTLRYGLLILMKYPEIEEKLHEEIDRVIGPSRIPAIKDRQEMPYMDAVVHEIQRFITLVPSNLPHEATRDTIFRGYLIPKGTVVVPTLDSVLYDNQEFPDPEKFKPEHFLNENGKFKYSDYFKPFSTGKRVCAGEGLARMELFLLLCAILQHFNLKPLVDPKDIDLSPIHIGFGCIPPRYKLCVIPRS
Sequence of human recombinant CYP2C19 (P33261 whole entry): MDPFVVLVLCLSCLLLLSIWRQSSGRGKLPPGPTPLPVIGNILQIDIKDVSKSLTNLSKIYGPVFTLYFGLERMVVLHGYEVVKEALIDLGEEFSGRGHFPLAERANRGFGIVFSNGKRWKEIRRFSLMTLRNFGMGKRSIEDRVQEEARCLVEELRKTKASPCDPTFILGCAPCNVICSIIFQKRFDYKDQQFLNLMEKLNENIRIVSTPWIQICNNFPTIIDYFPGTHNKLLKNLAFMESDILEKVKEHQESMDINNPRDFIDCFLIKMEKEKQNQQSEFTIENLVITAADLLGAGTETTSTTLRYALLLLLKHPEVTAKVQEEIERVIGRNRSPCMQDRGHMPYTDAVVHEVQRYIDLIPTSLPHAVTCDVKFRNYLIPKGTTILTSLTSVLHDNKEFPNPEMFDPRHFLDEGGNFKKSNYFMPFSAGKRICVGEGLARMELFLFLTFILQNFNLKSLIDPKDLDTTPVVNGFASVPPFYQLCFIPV
Sequence of human recombinant CYP3A4 (P08684 whole entry): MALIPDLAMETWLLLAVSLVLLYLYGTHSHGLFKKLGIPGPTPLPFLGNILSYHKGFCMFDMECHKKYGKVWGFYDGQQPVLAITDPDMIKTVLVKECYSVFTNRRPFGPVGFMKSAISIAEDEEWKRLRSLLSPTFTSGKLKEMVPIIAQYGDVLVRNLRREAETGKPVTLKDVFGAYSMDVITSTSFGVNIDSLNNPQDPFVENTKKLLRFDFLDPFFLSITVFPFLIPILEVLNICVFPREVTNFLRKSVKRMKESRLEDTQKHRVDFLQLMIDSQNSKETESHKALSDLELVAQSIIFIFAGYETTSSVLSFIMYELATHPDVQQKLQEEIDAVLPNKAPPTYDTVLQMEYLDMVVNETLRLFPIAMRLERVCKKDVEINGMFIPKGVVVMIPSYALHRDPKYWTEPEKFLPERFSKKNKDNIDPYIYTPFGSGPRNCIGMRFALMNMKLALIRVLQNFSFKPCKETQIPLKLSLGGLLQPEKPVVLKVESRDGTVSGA

Compound	CYP1A2 activity (% of the solvent control) ([1]; 1 nM PFAS alone)	CYP1A2 activity (% of the solvent control) [1, 10]	CYP1A2 activity (% of the solvent control) ([1]; 1 µM PFAS alone)	CYP1A2 activity (% of the solvent control) [1, 11]	CYP3A4 activity (% of the solvent control) [2, 12]	CYP3A4 activity (% of the solvent control) [2, 13]	IC50 [3] [µM]	IC50 [4] [µM]	IC50 [5] [µM]	IC50 [6] [µM]	IC50 [7] [µM]	half-life of serum elimination [8] [years]	CYP3A4 activity (% of the solvent control) ([2]; 1 nM PFAS alone)	CYP3A4 activity (% of the solvent control) ([2]; 1 µM PFAS alone)	activity at 48 h, 1 nM [9] [%]	activity at 48 h, 1 µM [9] [%]
O=S(=O)(O)C(F)(F)C(F)(F)C(F)(F)C(F)(F)F [PFBS, Perfluorobutanesulfonic acid]	205.4%	130.9%	204.4%	128.5%	concentration-dependent decrease	–	–	–	–	–	–	–	–	–	–	–
O=C(O)C(F)(OC(F)(F)C(F)(F)C(F)(F)F)C(F)(F)F (centres unmarked) [HFPO-DA, Undecafluoro-2-methyl-3-oxahexanoic acid]	neither concentration of HFPO-DA nor PFHxS had a significant effect	decreased activity	neither concentration of HFPO-DA nor PFHxS had a significant effect	decreased activity	did not influence the CYP3A4 activity	did not influence the CYP3A4 activity	–	–	–	–	–	–	–	–	–	–
O=C(O)C(F)(F)C(F)(F)C(F)(F)C(F)(F)C(F)(F)F [PFHxA, Perfluorohexanoic acid]	increased CYP1A2 activity	no significant differences	increased CYP1A2 activity	no significant differences	–	not in those exposed to the higher (1 µM) concentrations	–	–	–	–	–	–	–	–	–	–
O=C(O)C(F)(F)C(F)(F)C(F)(F)C(F)(F)C(F)(F)C(F)(F)C(F)(F)F [PFOA, Perfluorooctanoic acid]	–	–	–	–	–	–	> 100	96.9	> 100	> 100	> 100	3.5	–	–	–	–
OCCC(F)(F)C(F)(F)C(F)(F)C(F)(F)C(F)(F)C(F)(F)F [6:2 FTOH, 6:2 Fluorotelomer alcohol]	168.4%	lower	148.4%	lower	not statistically different from the inducer nor the solvent control	not statistically different from the inducer nor the solvent control	–	–	–	–	–	–	no statistically significant differences	no statistically significant differences	–	–
O=S(=O)(O)C(F)(F)C(F)(F)C(F)(F)C(F)(F)C(F)(F)C(F)(F)F [PFHxS, Perfluorohexanesulfonic acid potassium salt]	no significant differences	–	no significant differences	–	significantly lower relative to rifampicin alone	significantly lower relative to rifampicin alone	13.8	> 100	51.6	> 100	> 100	–	–	–	80.2	122
